Measured values: patent publication US10711000B2 (Fronthera U.S. Pharmaceuticals LLC, priority 2018, dated 2020)
Read-outs that look alike come from different tables or passages of the source.

Target: T1, Autotaxin (Homo sapiens, UniProt Q13822)
T1 construct: from tissue; host or cells: pooled human plasma
Test: LPA formation in pooled human plasma (ex vivo autotaxin inhibition)
Type: biochemical
Settings: 2 hours incubation
Summary of the method: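 Pooled human plasma incubated 2 h with various compound concentrations; LPA 18:2 and 20:4 quantified by LC/MS/MS (negative-ion MRM, LPA17:0 internal standard) after butanol extraction. Inhibition of LPA formation relative to untreated plasma; IC50 by non-linear regression.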

[1] = LPA 18:2 by LC/MS/MS, read-out: LPA formation (18:2) (IC50)
[2] = LPA 20:4 by LC/MS/MS, read-out: LPA formation (20:4) (IC50)

| SMILES | IC50 [1] [µM] | IC50 [2] [µM] |
| --- | --- | --- |
| CCn1nc2ncc(N3CC4(CN(C(=O)C5CCOCC5)C4)C3)cc2c1N(C)c1nc(-c2ccc(F)cc2)c(C#N)s1 [Compound 118, 2-((2-ethyl-5-(6-(tetrahydro-2H-pyran-4-carbonyl)-2,6-diazaspiro[3.3]heptan-2-yl)-2H-pyrazolo[3,4-b]pyridin-3-yl)(methyl)amino)-4-(4-fluorophenyl)thiazole-5-carbonitrile] | ≤ 0.1 | ≤ 0.1 |
| CCc1nn2cc(F)c(N3CCN(CC(=O)N4CC(O)C4)CC3)cc2c1N(C)c1nc(-c2ccc(F)cc2)c(C#N)s1 [Example 101, 2-[[2-ethyl-6-fluoro-5-[4-[2-(3-hydroxyazetidin-1-yl)-2-oxo-ethyl]piperazin-1-yl]pyrazolo[1,5-a]pyridin-3-yl]-methyl-amino]-4-(4-fluorophenyl)thiazole-5-carbonitrile] | ≤ 0.1 | ≤ 0.1 |
| CCc1nn2cc(F)c(N3CC4(CN(C(=O)[C@H]5CCOC5)C4)C3)cc2c1N(C)c1nc(-c2ccc(F)cc2)c(C#N)s1 [Example 102, 2-[[2-ethyl-6-fluoro-5-[2-[(3S)-tetrahydrofuran-3-carbonyl]-2,6-diazaspiro[3.3]heptan-6-yl]pyrazolo[1,5-a]pyridin-3-yl]-methyl-amino]-4-(4-fluorophenyl)thiazole-5-carbonitrile] | ≤ 0.1 | ≤ 0.1 |
